According to patent US5179107A, “Antiviral quinolinone compounds” (Schering Corporation, priority 1991, dated 1993):
Values joined by “and” are separate entries in the source; they are usually repeats but may differ in a detail not shown here. Equal values may be shown once. Read-outs that look alike come from different tables or passages of the source.

How the values were obtained:
[1] = tested on: HSV; conditions: added to lidocaine or lidocaine hydrochloride; U.S. Pat. No. 4,757,088; cited from earlier work
[2] = tested on: HSV-2 (strain MS); experiment: HSV-β-GAL assay: transient expression of beta galactosidase in pON 245^ori- transfected HeLa cells infected with HSV-2; format: cell-based; conditions: multiple numbers = additional tests; for IC50: Human alphaherpesvirus 2, HeLa, 24 h
Method: (§1) HeLa and Vero cell cultures were maintained in Eagles Minimal Essential Medium which was supplemented with glutamine, penicillin, streptomycin and 10% fetal calf serum (10% EMEM). Stock cultures of HSV-2 (strain MS available from ATCC VR-540) were grown in and harvested from Vero cells. Viral stocks were titered in Vero cells according to established procedures.
Plasmid pON 245^ori- contains the promoter of the HSV-1 thymidine kinase (tk) gene located immediately 5' of the E. coli lac Z gene. In this arrangement, the tk promoter controls transcription from the bacterial gene in transient expression assays. Additionally, an SV40 polyadenylation signal is present at the 3' end of the lac Z gene to allow for the efficient translation of the mRNA in eucaryotic cells. The expression of beta galactosidase in a transient assay using pON 245^ori- is dependent upon superinfection of the transfected cells with HSV. […] For example, see U.S. application Ser. No. 07/435,491 filed Sep. 5, 1989, the disclosure of which is incorporated herein by reference thereto.
HeLa cells were seeded into 96 well microtiter plates and allowed to grow to 80% confluency (approximately 35000 cells/well). One half microgram of plasmid pON 245^ori- DNA was introduced into the cells of each well by the […] precipitation technique (Grahman and Van der Eb, 1973). Four to six hours later, the cells were rinsed with Hank's Balanced Salt Solution (HBSS), overlaid with 10% EMEM and incubated at 37° C. At 24 hrs post-transfection, cells were rinsed, overlaid with 10% EMEM again and re-incubated at 37° C. At 48 hrs. post-transfection, cells were rinsed and overlaid with either EMEM containing 2% fetal calf serum (2% EMEM), 2% EMEM containing HSV-2 (strain MS, Multiplicity of infection [moi]=5 pfu/cell) or 2% EMEM containing HSV-2 and the appropriate concentration of the compound to be tested. Twenty-four hrs later, the cells were harvested and assayed for beta galactosidase activity as described below.
(§2) All determinations of beta galactosidase activity were performed in 96 well microtiter plates. The intracellular level of beta galactosidase activity in each well was determined from cell lysates of the monolayer cultures. […] The generation of fluorescent product was quantified on a Microfluor microfluorimeter (Dynatech) after addition of 0.1M glycine, pH 10.3 (Spaete and Mocarski, 1985). The inhibitory activity of a compound was plotted versus the concentration and an IC50 value (the concentration of compound required to reduce beta glactosidase expression by 50%) was obtained for each compound tested.
The in-vitro anti-HSV activity of compounds of this invention is set forth in Table I. More than one number for a particular entry indicates the results for additional tests.

[3] = Cytotoxicity, ^3 H-LEU assay (HeLa cell translation); format: cell-based; conditions: human, hela cells, inhibition of cellular translational activity, overnight/24 hrs incubation, read-out: CYTOTOXICITY ^3 H-LEU ASSAY IC50
Method: as §1
(§3) HeLa cells were treated with inhibitory compound for 24 hrs, after which levels of translational activity were assayed.
(§4) For assay of translational activity, HeLa cultures were grown to 80% confluency in 96 well microtiter plates, treated with appropriate concentrations of compound in 2% EMEM during an overnight incubation at 37° C., then rinsed with HBSS and overlaid with […] of 2% EMEM containing 8 uCi of tritiated leucine (^3 H-LEU, […], Amersham Corp., Arlington Heights Ill.). After a 1 hr incubation at 36.5° C., the cells were rinsed twice with phosphate buffered saline (PBS) and lysed in 400 ul/well of 1×PBS, 0.5% sodium dodecyl sulphate (SDS). After a 10 min incubation at 36.5° C., the contents of the well were transferred to a well in a Millititer HA microfiltration plate (Millipore Corp., Bedford, Mass.). The TCA insoluble proteins were precipitated onto the filter disc by a 10 min fixation with 5% TCA, followed by filtration under vacuum and three 10 minute rinses with 95% ethanol. The filters were dried at room temperature, cut from the milltitier plate and transferred to scintillation vials. TCA precipitable counts were assayed in 5 ml of Scintisol (Isolab, Akron, Ohio). The inhibitory activity of a compound was plotted versus the concentration and an IC50 value (that concentration of the compound required to decrease cellular translational activity by 50%) was derived for each compound.

[4] = tested on: HSV-2, strain MS; experiment: Prophylactic guinea pig model of HSV infection (genital lesions, Maximum Lesion scores); format: in vivo; conditions: subcutaneous, 60 mg per kg, every eight hours for 10 days, from 24 hrs prior to infection
Method: The in vivo assessment of anti-HSV efficacy was determined in the prophylactic guinea pig model of HSV infection described by Stansberry et al (1982). Dosing of guinea pigs was comprised of an initial treatment with test compound given 24 hrs prior to virus infection and subsequent administration of the compound every eight hours (T.I.D.) for a total of 10 days. Test compounds were administered subcutaneously in 0.5% buffered methyl cellulose at a dose of 60 mg per kg body weight of the animal. Animals were monitored daily for the developement of genital lesions and neurological symptomology, both of which were recorded and compared to the results obtained with parallel groups which received placebo or acyclovir treatment. Efficacy was evaluated for each compound by scoring the ability of the compound to ameliorate genital lesions produced by infection with HSV-2, strain MS, expressed as Maximum Lesion scores (MLS) on a scale of 1 (least lesions) to 4 (severe lesions).

[5] = CMV toxicity assay, ^3 H-LEU assay in HFF cells; format: cell-based; conditions: human, read-out: CYTOTOXICITY ^3 H-LEU ASSAY IC50 (CMV toxicity assay)
[6] = tested on: CMV (strain Towne); experiment: CMV-β-Gal assay: transient expression of beta galactosidase, plasmid pON249 ΔNH3, in human foreskin fibroblasts; format: cell-based; conditions: multiple numbers = additional tests; for ANTI-CMV ACTIVITY CMV-β-Gal ASSAY IC50: CMV strain Towne, human foreskin fibroblasts; for IC50: Human betaherpesvirus 5, Fibroblast, read-out: ANTI-CMV ACTIVITY CMV-β-Gal ASSAY IC50, CMV strain Towne, human foreskin fibroblasts
Method: as §2
The in-vitro CMV activity of the compounds represented by Formulas 1.1 and 1.3 were determined using the following CMV assay.
Human foreskin fibroblast (HHF) cell cultures were grown in 10% EMEM. CMV (strain Towne received from Stanford University) was grown and titered in HHF cells. Plasmids pON249 ΔNH3, containing CMV promoter genes, were used in the β-galactosidase transient expression assay as shown above.
More than one number for a particular entry indicates the results of additional tests.

[7] = tested on: HSV-1; conditions: U.S. Pat. No. 4,757,088; cited from earlier work
[8] = tested on: HSV; conditions: U.S. Pat. No. 4,757,088; cited from earlier work
[9] = tested on: herpes virus; conditions: U.S. Pat. No. 4,757,088; cited from earlier work
[10] = tested on: HSV-2; conditions: U.S. Pat. No. 4,757,088; cited from earlier work
[11] = tested on: HeLa cells; experiment: Cytotoxicity, ^3 H-LEU assay (HeLa cell translation); format: cell-based; conditions: inhibition of cellular translational activity, overnight/24 hrs incubation, 1440 min
Method: as §1, §3, §4

[12] = HSV-2 strain MS, moi 5 pfu/cell, HeLa cells, 24 hrs, read-out: ANTI-HSV ACTIVITY HSV-β-GAL ASSAY IC50

Row | Compound | IC50 [2, 12] | CC50 at 24 h [3] | also measured
1 | CC(C)(CO)[C@@H](O)C(=O)NCCC(=O)O [pantothenic acid] | – | – | effect of addition to lidocaine or lidocaine hydrochloride on their antiviral activity [1]: significantly enhances the antiviral activity
2 | Cn1c(=O)c(OC(=O)c2cccs2)c(OC(=O)c2cccs2)c2ccccc21 [Formula 1.8] | 19 µg/mL | > 50 µg/mL | –
3 | Cn1c(=O)c(O)c(O)c2ccccc21 [Formula 1.1] | – | 21 µg/mL | In-vivo anti-HSV activity [4]: inactive; IC50 ([2]; read-out: ANTI-HSV ACTIVITY HSV-β-GAL ASSAY IC50, HSV-2 strain MS, moi 5 pfu/cell, HeLa cells, 24 hrs): < 3 µg/mL; CC50 [5]: 36 µg/mL; ANTI-CMV ACTIVITY CMV-β-Gal ASSAY IC50 [6]: 1 µg/mL; IC50 [6]: 1.5 µg/mL
4 | CCC(=O)Oc1c(OC(=O)CC)c2ccccc2n(C)c1=O [Formula 1.10] | 17 µg/mL | 34 µg/mL | –
5 | Cn1cccc1C(=O)Oc1c(OC(=O)c2cccn2C)c2ccccc2n(C)c1=O [Formula 1.4] | – | > 100 µg/mL | –
6 | O=c1c(O)c(O)c2ccccc2n1Cc1ccccc1 [Formula 1.2] | – | 32 µg/mL | –
7 | O=c1c(O)c(O)c2ccccc2n1-c1ccccc1 [Formula 1.6] | 9 µg/mL | 8 µg/mL | –
8 | CCN(CC)CC(=O)Nc1c(C)cccc1C [lidocaine, 2-(diethylamino)-N-(2,6-dimethylphenyl)acetamide] | – | – | antiviral activity in cell culture against HSV-1 [7]: antiviral agent; treatment of HSV oral and genital lesions in humans [8]: particularly effective; treatment of herpes virus infections of mammals [9]: able to treat herpes virus infections of mammals; antiviral activity in cell culture against HSV-2 [10]: antiviral agent
9 | COc1c(OC)c2ccccc2n(C)c1=O [Formula 1.11] | 25 µg/mL | > 100 µg/mL | –
10 | Cn1c(=O)c(OC(=O)c2ccc[nH]2)c(OC(=O)c2ccc[nH]2)c2ccccc21 [Formula 1.5] | – | 28 µg/mL | –
11 | Cn1c(=O)c(OC(=O)c2ccc(Br)o2)c(OC(=O)c2ccc(Br)o2)c2ccccc21 [Formula 1.7] | 10 µg/mL | > 50 µg/mL | –
12 | CC(C)(CO)[C@@H](O)C(=O)NCCCO [dexpanthenol] | – | – | effect of addition to lidocaine or lidocaine hydrochloride on their antiviral activity [1]: significantly enhances the antiviral activity
13 | CCCCCCCn1c(=O)c(O)c(O)c2ccccc21 [Formula 1.3] | < 3 µg/mL | 37 µg/mL | ANTI-HSV ACTIVITY HSV-β-GAL ASSAY IC50 ([2]; HSV-2 strain MS, moi 5 pfu/cell, HeLa cells, 24 hrs): 2 µg/mL and 3 µg/mL; CYTOTOXICITY ^3 H-LEU ASSAY IC50 [11]: 30 µg/mL; CC50 [5]: 25 µg/mL; ANTI-CMV ACTIVITY CMV-β-Gal ASSAY IC50 [6]: 9 µg/mL; IC50 [6]: 13 µg/mL
14 | Cn1c(=O)c(OC(=O)c2ccccc2)c(OC(=O)c2ccccc2)c2ccccc21 [Formula 1.9] | 20 µg/mL | 58 µg/mL | –
